Laboratory results reported in US9610331B2, “Methods for hematopoietic precursor mobilization” (Yeda Research and Development Co. Ltd., priority 2009, dated 2017).
Ends that are not written are not given here. * marks the point of attachment. Palmitoyl = CCCCCCCCCCCCCCCC(=O)*

B1: G-CSF: recombinant human G-CSF (Neupogen, Amgen) (protein, UniProt P09919 31-207, looked up)
Granulocyte …: TPLGPASSLPQSFLLKCLEQVRKIQGDGAALQEKLVSECATYKLCHPEELVLLGHSLGIPWAPLSSCPSQALQLAGCLSQLHSGLFLYQGLLQALEGISPELGPTLDTLQLDVADFATTIWQQMEELGMAPALQPTQGAMPAFASAFQRRAGGVLVASHLQSFLEVSYRVLRHLAQP
modifications: filgrastim

What was measured:
CD34+ cells = details: cited from earlier work
C57BL mice = experiment: G-CSF induced splenomegaly (spleen weight) in C57BL mice; assay type: in vivo
Description: All animals were maintained under conditions approved by the Institutional Animal Care and Use Committee at the Weizmann Institute. The study protocol was approved by the ethics committees at Weizmann Institute. In these experiments, 8 to 10 week old immune competent C57BL mice were used. All mice were kept in small cages (up to five animals per cage) and fed sterile food.
Mice were treated by daily subcutaneous injections of recombinant human G-CSF (Neupogen, Amgen) at a dose of 250 μg per kg per day for 7 days. To determine the spleen weight, mice were euthanized and spleens were harvested 7 days after the initiation of G-CSF treatment.
Dabigatran etexilate (Boehringer Ingelheim Pharma KG, Biberach, Germany) was administered orally at a dosage of 30 mg/kg. A final volume of 0.3 ml dissolved in DDW was administered daily.
The palmitoylated peptides: pal-RCLSSSAVANRS (PAR1 antagonist, SEQ ID NO: 1) and pal-SGRRYGHALR (PAR4 antagonist, SEQ ID NO: 2) were prepared by solid-phase peptide synthesis using in situ neutralization/HBTU by Hadar Biotec, Israel. The mice were treated by vehicle control, or with PAR1 antagonist or PAR4 antagonist at 0.5 mg/kg, intraperitoneally on daily basis.

spleen cells = experiment: Cellular composition of spleen by flow cytometry; assay type: in vivo, mouse; details: for B cells (B220) / Granulocytes (Gr-1) / Macrophages (CD11b) / T cells (CD3): spleen, C57BL mice, 7 days treatment, mean ± SD
Description: (§1) Membrane expression of different molecules on mouse bone marrow (BM) and spleen cells was detected by flow cytometry, using one- or two-step staining procedures.
(§2) Cellular composition of the hematopoietic compartment was stained by CD3-FITC, B220-PE, CD-11b allophycocyanin and Gr-1 FITC ((Pharmigen, BD).
(§3) After staining, cells were washed and analyzed LSRII (Becton Dickinson) using FlowJo software.
(§4) Comparisons between the different groups were evaluated using the Student's test. Data were expressed as mean±SD, and were considered statistically significant at p values of 0.05 or less.

[1] = test system: hematopoietic progenitors; experiment: Colony-forming assay of spleen cells (CFU/spleen); assay type: in vivo, mice; details: for precursor mobilization (CFU/spleen), enhancement as compared to non-treated mice: antagonist added to G-CSF treatment; for circulating CFU/spleen compared with C57BL/6 mice: at 7 days after G-CSF treatment, P<0.05 vs C57BL/6 (n=5), FIG. 3 legend
Description: All animals were maintained under conditions approved by the Institutional Animal Care and Use Committee at the Weizmann Institute. The study protocol was approved by the ethics committees at Weizmann Institute. In these experiments, 8 to 10 week old immune competent C57BL mice and C57BL hemophilic (C57BL Hem F8) mice were used. All mice were kept in small cages (up to five animals per cage) and fed sterile food. Cells were plated in 0.9% methylcellulose (Sigma Chemical Co.), 30% FCS, DMEM medium (Sigma Chemical Co.), 50 ng/ml stem cell factor (SCF), 5 ng/ml IL-3 (R&D Systems Inc.), 5 ng/ml GM-CSF (R&D Systems Inc.), and 2 U/ml erythropoietin (EPO; Orto Bio Tech, Don Mills, Ontario, Canada). Total spleen cells 5×10^5 were seeded in semisolid cultures. Colonies were scored 7 days later under an inverted microscope (CK2; Olympus), applying morphological criteria. To study the role of thrombin in the mobilization of hematopoietic progenitors, inventors enumerated these cells by their ability to form colonies in semi-solid media. Thus, after 7 days of treatment with G-CSF with or without PAR antagonists, the number of hematopoietic progenitors in the spleen was estimated by plating the low density mononuclear cells in methylcellulose containing appropriate nutrients and growth factors (see materials and experimental procedures, above). The plates were incubated for 7 days and the colonies were scored using a low magnification microscope. The number of progenitors mobilized into the spleen was presented as CFU/spleen (FIG. 3). […] However, the addition of PAR1 or PAR4 antagonists to G-CSF treatment led to further enhancement of precursor mobilization by 15.3 and 6.4 fold, respectively (as compared to non-treated mice). Likewise, in Factor VIII knock out (KO) mice, which have low thrombin levels due to the absence of Factor VIII, an enhancement of spleen colonies by a factor of 15.9 was recorded upon treatment with G-CSF.

bone marrow (BM) cells = experiment: Cellular composition of bone marrow by flow cytometry; assay type: in vivo, mouse; details: for B cells (B220) / Granulocytes (Gr-1) / Macrophages (CD11b) / T cells (CD3): bone marrow, C57BL mice, 7 days treatment, mean ± SD
Description: as §1, §2, §3, §4

Lin−Kit+Sca+ stem cell = experiment: Lin-Kit+Sca+ stem cell numbers in blood, spleen and BM by FACS; assay type: in vivo, mouse; details: FIG. 4
Source text: Membrane expression of different molecules on mouse bone marrow (BM), spleen and peripheral blood (PB) mononuclear cells (MNCs) was detected by flow cytometry, using one- or two-step staining procedures.
Cells were stained for lineage negative Lin− (CD3, B220, CD11b, Gr-1 and Ten-119 were biotinilated and detected by strepavidine Pe-Cy7), stem cell factor receptor positive (c-kit allophycocyanin+), stem cell antigen-1 positive (Sca-1 PE+) using Pharmigen, BD.
After staining, cells were washed and analyzed on LSRII (Becton Dickinson) using FlowJo software.
as §4

HSPC = details: after a single injection; cited from earlier work
C57BL/6 mice = details: 7 day daily G-CSF treatment of C57BL/6 mice; cited from earlier work
[2] = with G-CSF for 7 days, antagonist 0.5 mg/kg intraperitoneally daily, FIG. 2

Molecule | G-CSF induced splenomegaly (C57BL mice; [2]) | B cells (B220) (spleen cells) [%] | Granulocytes (Gr-1) (spleen cells) [%] | Macrophages (CD11b) (spleen cells) [%] | T cells (CD3) (spleen cells) [%] | precursor mobilization (CFU/spleen), enhancement as compared to non-treated mice ([1]; 7 days, C57BL mice, FIG. 3) [fold] | circulating CFU/spleen compared with C57BL/6 mice [1] | B cells (B220) (bone marrow (BM) cells) [%] | Granulocytes (Gr-1) (bone marrow (BM) cells) [%] | Macrophages (CD11b) (bone marrow (BM) cells) [%] | T cells (CD3) (bone marrow (BM) cells) [%] | also measured
c1cc(CN2CCCNCCNCCCNCC2)ccc1CN1CCCNCCNCCCNCC1 [AMD3100] |  |  |  |  |  |  |  |  |  |  |  | mobilization capacity of G-CSF (CD34+ cells; in combination with G-CSF in mice): significantly improves; mobilization of CD34+ cells (CD34+ cells; on its own): adequately
CCCCCCOC(=O)NC(=N)c1ccc(NCc2nc3cc(C(=O)N(CCC(=O)OCC)c4ccccn4)ccc3n2C)cc1 [Dabigatran, Dabigatran etexilate, reference compound] |  |  |  |  |  |  |  |  |  |  |  | G-CSF induced splenomegaly (C57BL mice; in conjunction with G-CSF 250 μg per kg per day s.c. for 7 days, Dabigatran etexilate 30 mg/kg orally daily, FIG. 1): marked enhancement
pal-RCLSSSAVANRS (Palmitoyl-RCLSSSAVANRS) [PAR1 antagonist] | significantly enhanced | 50.57 ± 4.36 | 3.99 ± 2.42 | 2.96 ± 1.18 | 39.59 ± 3.41 | 15.3 | more | 13.42 ± 5 | 38.26 ± 5.31 | 34.40 ± 5.16 | 2.28 ± 0.46 | Lin−Kit+Sca+ stem cell number in the blood and the spleen (Lin−Kit+Sca+ stem cell; co-treatment with G-CSF): highest increase; Lin−Kit+Sca+ stem cell numbers in the bone marrow (Lin−Kit+Sca+ stem cell; co-treatment with G-CSF): clearly enhanced; Lin−Kit+Sca+ stem cells numbers in the blood and especially in the BM (Lin−Kit+Sca+ stem cell; without G-CSF treatment): marked enhancement
pal-SGRRYGHALR (Palmitoyl-SGRRYGHALR) [PAR4 antagonist] | significantly enhanced | 46.34 ± 4.23 | 4.41 ± 2.08 | 3.53 ± 1.49 | 39.63 ± 3.52 | 6.4 | more | 16.16 ± 7.26 | 50.58 ± 9.74 | 41.06 ± 12.93 | 2.93 ± 1.54 | B cell numbers in the spleen (spleen cells; summary of Table 1): reduced; B cell numbers in the BM (bone marrow (BM) cells; Table 2): reduced
zymosan |  |  |  |  |  |  |  |  |  |  |  | time to mobilize HSPC (HSPC): ≤ 1 h
B1 |  | 47.37 ± 1.33 | 10.21 ± 2.69 | 8.16 ± 2.07 | 34.16 ± 3.17 |  |  | 3.18 ± 1.01 | 77.06 ± 7.38 | 74.37 ± 7.79 | 0.98 ± 0.85 | number of granulocytes and macrophages in the spleen (spleen cells; after G-CSF treatment, summary of Table 1): marked elevation; enhancement of spleen colonies ([1]; Factor VIII knock out (KO) mice, upon treatment with G-CSF): 15.9 fold; mobilization of progenitors (CFU/spleen), enhancement as compared to non-treated mice ([1]; G-CSF treatment alone, 7 days, C57BL mice, FIG. 3): 2.8 fold; number of granulocytes and macrophages in the BM (bone marrow (BM) cells; after G-CSF treatment, Table 2): marked elevation; hematopoietic stem cell (HSC) mobilization and splenomegaly (C57BL/6 mice): induced
